A word on the solubility: it is the dissolved amount per volume that the medium holds. A high value points to much dissolved substance.

No end group written: not given here.

Consider eight substances from patent publication US20130225508A1, “PEPTIDE CAPABLE OF BINDING TO IMMUNOGLOBULIN” (priority 2010, published 2013).

The nature of the data set: Evaluation of solubility of peptides in water (PBS or physiological saline). In kind it is physicochemical. The conditions noted are these: solvent PBS or physiological saline. The procedure:
Water solubility was evaluated for peptides in which various kinds of hydrophilic amino acid were substituted for the 4th and 5th amino acids which were verified in (1) to be allowed to be mutated. The peptides listed in Table 2 were synthesized by GL Biochem (Shanghai). Among the peptides listed in Table 2, peptides SP1 to SP7 are peptides in which various kinds of hydrophilic amino acid were substituted for the 4th and 5th amino acids.
In Table 3, the circle symbol is assigned to a peptide which was dissolved in a solvent (PBS or physiological saline) at a concentration of 10 mg/ml or higher, and the cross symbol is assigned to a peptide which was not dissolved at a concentration of 1 mg/ml. […] In the subsequent experiments, the peptides in which the 4th and 5th amino acids were substituted by hydrophilic amino acids were used.
PGLDHF [SP3, PGLDHF] had a solubility of at least 10000 µg/mL.
For PGLYYF [R1, PGLYYF] the value was under 1000 µg/mL.
Take PGLSSF [SP7, PGLSSF]: the solubility is at least 10000 µg/mL.
PGLEHF [SP6, PGLEHF] displayed a solubility of at least 10000 µg/mL.
For PGLDRF [SP2, PGLDRF] the value was at least 10000 µg/mL.
PGLEKF [SP4, PGLEKF] gave a solubility of at least 10000 µg/mL.
For PGLDKF [SP1, PGLDKF] the value was at least 10000 µg/mL; for PGLERF [SP5, PGLERF], at least 10000 µg/mL.
